Laboratory results taken from ChEMBL document CHEMBL4507269, “Data for DCP probe BAY-386” (2021).

Tests used:
Platelet [1] = assay: Inhibition of platelet aggregation (human plasma, TRAP-6); type: cell-based
[2] = biological target: 5-hydroxytryptamine receptor 1E (Homo sapiens) (UniProt P28566); settings: Compound concentration 10.0 uM
[3] = biological target: T1, Muscarinic acetylcholine receptor M4 (Homo sapiens) (UniProt P08173); settings: Compound concentration 10.0 uM
T1 sequence (whole entry): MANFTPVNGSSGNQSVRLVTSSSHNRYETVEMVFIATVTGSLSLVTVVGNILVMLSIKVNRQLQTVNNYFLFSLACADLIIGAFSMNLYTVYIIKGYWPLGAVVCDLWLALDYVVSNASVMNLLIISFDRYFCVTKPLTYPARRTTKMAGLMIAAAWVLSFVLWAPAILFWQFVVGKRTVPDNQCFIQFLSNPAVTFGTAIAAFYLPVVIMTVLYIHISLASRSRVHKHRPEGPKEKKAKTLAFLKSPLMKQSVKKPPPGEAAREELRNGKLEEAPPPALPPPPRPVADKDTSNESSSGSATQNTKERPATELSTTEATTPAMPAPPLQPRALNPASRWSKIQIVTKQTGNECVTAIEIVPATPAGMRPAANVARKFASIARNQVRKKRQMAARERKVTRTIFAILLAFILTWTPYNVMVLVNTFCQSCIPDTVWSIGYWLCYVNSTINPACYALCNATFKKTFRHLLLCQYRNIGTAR

[4] = biological target: Beta-2 adrenergic receptor (Homo sapiens) (UniProt P07550); settings: Compound concentration 10.0 uM
Sequence of Beta-2 adrenergic receptor (Homo sapiens) (P07550 whole entry, looked up): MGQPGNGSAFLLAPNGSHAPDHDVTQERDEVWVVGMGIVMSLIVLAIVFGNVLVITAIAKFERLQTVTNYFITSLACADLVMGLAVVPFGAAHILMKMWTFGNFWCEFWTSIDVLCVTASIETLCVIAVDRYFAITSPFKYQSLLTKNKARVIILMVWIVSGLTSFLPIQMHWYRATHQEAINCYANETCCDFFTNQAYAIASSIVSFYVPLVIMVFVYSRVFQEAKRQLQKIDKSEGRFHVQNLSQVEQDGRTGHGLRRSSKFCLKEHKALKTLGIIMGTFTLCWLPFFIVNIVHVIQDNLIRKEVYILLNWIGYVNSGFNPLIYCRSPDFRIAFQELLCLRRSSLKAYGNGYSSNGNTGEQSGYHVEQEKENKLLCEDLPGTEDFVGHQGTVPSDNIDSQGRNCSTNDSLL

[5] = biological target: Adenosine receptor A2a (Homo sapiens) (UniProt P29274); settings: Compound concentration 10.0 uM
Sequence of Adenosine receptor A2a (Homo sapiens) (P29274 whole entry): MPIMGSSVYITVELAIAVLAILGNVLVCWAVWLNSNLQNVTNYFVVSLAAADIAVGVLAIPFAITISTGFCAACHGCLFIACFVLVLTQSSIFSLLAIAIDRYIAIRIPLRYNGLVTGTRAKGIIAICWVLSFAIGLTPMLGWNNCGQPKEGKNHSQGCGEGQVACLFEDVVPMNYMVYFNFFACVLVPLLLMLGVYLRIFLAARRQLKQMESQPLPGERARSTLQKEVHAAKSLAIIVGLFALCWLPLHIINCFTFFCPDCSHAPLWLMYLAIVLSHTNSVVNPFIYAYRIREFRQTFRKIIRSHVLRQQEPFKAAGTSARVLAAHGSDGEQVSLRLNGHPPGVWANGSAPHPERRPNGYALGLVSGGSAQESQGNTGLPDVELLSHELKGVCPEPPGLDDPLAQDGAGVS

[6] = biological target: Glutamate NMDA receptor (Rattus norvegicus) (UniProt P35439+Q00959+Q00960+Q00961+Q62645+Q8VHN2+Q9R1M7); settings: Compound concentration 10.0 uM
[7] = biological target: ATP-sensitive inward rectifier potassium channel 11 (Cricetulus griseus) (UniProt A0A3L7HHE1); assay: Inhibition of Potassium Channel [KATP] at 10 µM in the Eurofins-Panlabs radioligand binding assay (Eurofins_assay_265600); settings: Cricetinae; Compound concentration 10.0 uM
Sequence of ATP-sensitive inward rectifier potassium channel 11 (Cricetulus griseus) (A0A3L7HHE1 as listed by the source): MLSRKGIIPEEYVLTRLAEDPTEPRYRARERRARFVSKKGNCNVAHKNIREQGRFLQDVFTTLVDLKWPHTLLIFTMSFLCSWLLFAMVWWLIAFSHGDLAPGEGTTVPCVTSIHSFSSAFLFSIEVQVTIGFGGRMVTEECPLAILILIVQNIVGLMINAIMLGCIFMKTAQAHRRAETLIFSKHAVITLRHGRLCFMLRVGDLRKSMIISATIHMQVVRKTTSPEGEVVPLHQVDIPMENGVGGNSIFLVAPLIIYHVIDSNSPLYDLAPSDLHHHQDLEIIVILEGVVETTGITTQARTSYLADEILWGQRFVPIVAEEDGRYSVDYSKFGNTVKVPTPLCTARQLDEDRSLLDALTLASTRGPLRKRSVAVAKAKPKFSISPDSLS

[8] = biological target: Voltage-dependent N-type calcium channel subunit alpha-1B (Homo sapiens) (UniProt Q00975); assay: Inhibition of Calcium Channel N-Type at 10 µM in the Eurofins-Panlabs radioligand binding assay (Eurofins_assay_216000); settings: Rattus norvegicus; Compound concentration 10.0 uM
[9] = biological target: Neuropeptide Y receptor type 1 (Homo sapiens) (UniProt P25929); assay: Inhibition of Neuropeptide Y Y1 at 10 µM in the Eurofins-Panlabs radioligand binding assay (Eurofins_assay_257010); settings: Compound concentration 10.0 uM
Sequence of Neuropeptide Y receptor type 1 (Homo sapiens) (P25929 whole entry): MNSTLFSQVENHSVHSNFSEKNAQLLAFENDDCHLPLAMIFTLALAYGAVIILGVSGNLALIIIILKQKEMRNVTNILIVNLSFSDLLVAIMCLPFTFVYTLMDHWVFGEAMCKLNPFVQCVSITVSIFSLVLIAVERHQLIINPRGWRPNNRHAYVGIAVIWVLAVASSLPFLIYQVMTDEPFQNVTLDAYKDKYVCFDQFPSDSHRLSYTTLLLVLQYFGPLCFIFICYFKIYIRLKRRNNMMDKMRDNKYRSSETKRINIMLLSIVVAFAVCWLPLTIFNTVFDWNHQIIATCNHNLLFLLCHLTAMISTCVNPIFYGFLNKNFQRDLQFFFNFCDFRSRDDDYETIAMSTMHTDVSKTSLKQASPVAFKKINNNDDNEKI

[10] = biological target: Acetylcholine receptor subunit alpha (Homo sapiens) (UniProt P02708); assay: Inhibition of Nicotinic Acetylcholine […], Bungarotoxin at 10 µM in the Eurofins-Panlabs radioligand binding assay (Eurofins_assay_258700); settings: Compound concentration 10.0 uM
Sequence of Acetylcholine receptor subunit alpha (Homo sapiens) (P02708 whole entry): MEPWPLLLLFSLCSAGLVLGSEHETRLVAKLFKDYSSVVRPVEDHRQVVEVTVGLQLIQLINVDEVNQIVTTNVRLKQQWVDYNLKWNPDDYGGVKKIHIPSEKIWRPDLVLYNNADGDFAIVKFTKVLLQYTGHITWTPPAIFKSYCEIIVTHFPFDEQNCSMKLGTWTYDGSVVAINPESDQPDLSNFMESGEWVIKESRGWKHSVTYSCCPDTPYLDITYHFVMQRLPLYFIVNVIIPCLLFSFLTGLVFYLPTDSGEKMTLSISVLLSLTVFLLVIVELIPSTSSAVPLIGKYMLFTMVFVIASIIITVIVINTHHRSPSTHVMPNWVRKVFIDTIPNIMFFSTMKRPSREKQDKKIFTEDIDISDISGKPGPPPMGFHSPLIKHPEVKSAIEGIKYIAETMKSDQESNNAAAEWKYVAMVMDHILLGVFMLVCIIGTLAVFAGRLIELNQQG

[11] = biological target: Histamine H2 receptor (Homo sapiens) (UniProt P25021); settings: Compound concentration 10.0 uM
Sequence of Histamine H2 receptor (Homo sapiens) (P25021 whole entry): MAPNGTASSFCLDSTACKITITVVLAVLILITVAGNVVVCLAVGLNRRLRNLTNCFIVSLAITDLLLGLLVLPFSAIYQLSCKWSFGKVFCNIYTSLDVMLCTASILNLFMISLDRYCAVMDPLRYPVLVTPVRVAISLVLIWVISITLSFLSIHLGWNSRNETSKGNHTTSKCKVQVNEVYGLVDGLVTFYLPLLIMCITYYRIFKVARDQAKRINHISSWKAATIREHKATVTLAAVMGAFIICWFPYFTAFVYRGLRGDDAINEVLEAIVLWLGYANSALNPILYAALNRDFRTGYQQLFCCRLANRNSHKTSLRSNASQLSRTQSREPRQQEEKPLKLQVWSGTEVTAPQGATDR

Rattus norvegicus [12] = species: Rattus norvegicus; assay: Inhibition of Thyroid Hormone at 10 µM in the Eurofins-Panlabs radioligand binding assay (Eurofins_assay_285900); type: protein assay; settings: Compound concentration 10.0 uM
Platelet [13] = assay: Inhibition of platelet aggregation (human plasma, TRAP-6) (IC50); type: cell-based
[14] = biological target: T2, Alpha-1D adrenergic receptor (Homo sapiens) (UniProt P25100); assay: Inhibition of Adrenergic alpha1D at 10 µM in the Eurofins-Panlabs radioligand binding assay (Eurofins_assay_203400); settings: Compound concentration 10.0 uM
T2 sequence (whole entry): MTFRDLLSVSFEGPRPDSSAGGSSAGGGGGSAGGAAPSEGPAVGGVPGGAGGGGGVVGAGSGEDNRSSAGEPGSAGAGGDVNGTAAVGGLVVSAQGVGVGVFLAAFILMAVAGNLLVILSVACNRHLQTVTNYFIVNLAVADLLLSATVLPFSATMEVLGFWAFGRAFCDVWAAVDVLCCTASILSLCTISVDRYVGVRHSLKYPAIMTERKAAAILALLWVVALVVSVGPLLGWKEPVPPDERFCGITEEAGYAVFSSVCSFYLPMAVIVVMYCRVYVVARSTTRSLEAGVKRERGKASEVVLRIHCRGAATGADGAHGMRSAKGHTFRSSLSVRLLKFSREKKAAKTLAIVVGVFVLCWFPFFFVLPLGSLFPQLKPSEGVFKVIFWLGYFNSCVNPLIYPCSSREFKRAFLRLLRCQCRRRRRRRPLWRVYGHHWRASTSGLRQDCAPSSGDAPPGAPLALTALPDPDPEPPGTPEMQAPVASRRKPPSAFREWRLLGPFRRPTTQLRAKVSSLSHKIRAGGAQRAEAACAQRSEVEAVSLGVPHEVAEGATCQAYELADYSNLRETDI

Rattus norvegicus [15] = species: Rattus norvegicus; settings: Compound concentration 10.0 uM
Platelet [16] = assay: Inhibition of platelet aggregation (human plasma, thrombin); type: cell-based
hERG (KCNH2) = hERG (KCNH2) (Homo sapiens, UniProt Q12809); assay: Inhibition of Potassium Channel hERG at 10 µM in the Eurofins-Panlabs radioligand binding assay (Eurofins_assay_265900); set-up: ligand concentration 1.5 nM, non-specific ligand with concentration Astemizole, incubation time 60 min, incubation temperature 25 °C; settings: HEK-293 cells that express human recombinant hERG, probe [3H] Astemizole, compound concentration 10 uM
Sequence of hERG (KCNH2) (Q12809 whole entry): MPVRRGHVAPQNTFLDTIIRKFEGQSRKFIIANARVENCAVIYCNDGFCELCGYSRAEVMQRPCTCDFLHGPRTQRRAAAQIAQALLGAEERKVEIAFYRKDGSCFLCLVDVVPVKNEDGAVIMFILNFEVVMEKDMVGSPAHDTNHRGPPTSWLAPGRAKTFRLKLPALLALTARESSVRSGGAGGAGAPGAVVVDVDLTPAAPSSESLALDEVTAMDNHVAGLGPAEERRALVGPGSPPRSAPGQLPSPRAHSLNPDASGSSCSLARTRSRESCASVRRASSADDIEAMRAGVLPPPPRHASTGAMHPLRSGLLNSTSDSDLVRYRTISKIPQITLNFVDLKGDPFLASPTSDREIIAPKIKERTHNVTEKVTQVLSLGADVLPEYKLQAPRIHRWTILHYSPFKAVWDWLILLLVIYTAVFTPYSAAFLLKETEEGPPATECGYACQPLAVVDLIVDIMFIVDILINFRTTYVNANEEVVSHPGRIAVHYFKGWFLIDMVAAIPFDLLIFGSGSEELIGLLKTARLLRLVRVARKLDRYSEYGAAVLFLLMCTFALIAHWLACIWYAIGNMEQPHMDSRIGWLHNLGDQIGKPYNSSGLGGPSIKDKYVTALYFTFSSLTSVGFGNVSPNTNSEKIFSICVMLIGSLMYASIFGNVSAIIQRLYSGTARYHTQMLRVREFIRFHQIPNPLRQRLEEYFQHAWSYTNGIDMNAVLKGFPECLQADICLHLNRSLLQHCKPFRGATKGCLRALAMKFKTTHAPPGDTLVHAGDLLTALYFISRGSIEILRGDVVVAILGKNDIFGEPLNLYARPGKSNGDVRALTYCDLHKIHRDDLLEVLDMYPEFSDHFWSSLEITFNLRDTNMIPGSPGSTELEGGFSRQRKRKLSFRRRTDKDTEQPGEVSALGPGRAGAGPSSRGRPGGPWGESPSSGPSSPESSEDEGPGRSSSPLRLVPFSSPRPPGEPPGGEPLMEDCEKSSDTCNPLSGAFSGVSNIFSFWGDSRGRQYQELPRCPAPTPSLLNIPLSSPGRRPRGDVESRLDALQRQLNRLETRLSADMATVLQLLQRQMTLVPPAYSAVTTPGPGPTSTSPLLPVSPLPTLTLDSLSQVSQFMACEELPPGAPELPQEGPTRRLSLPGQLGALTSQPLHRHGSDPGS

[17] = biological target: Substance-P receptor (Homo sapiens) (UniProt P25103); assay: Tachykinin NK1 Eurofins-Panlabs radioligand binding assay; settings: Compound concentration 10.0 uM
Sequence of Substance-P receptor (Homo sapiens) (P25103 whole entry): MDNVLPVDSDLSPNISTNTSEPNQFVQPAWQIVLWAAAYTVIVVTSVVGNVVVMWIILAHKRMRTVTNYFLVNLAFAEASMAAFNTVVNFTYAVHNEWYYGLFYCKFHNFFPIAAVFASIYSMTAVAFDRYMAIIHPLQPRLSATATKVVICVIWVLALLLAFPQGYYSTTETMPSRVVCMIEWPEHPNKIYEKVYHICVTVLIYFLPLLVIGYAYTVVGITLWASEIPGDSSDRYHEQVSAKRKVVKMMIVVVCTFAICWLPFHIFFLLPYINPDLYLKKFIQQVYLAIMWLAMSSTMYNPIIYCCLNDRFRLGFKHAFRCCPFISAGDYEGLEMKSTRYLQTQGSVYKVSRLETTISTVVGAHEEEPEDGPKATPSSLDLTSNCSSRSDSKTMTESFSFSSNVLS

[18] = biological target: D(3) dopamine receptor (Homo sapiens) (UniProt P35462); settings: Compound concentration 10.0 uM
Sequence of D(3) dopamine receptor (Homo sapiens) (P35462 whole entry): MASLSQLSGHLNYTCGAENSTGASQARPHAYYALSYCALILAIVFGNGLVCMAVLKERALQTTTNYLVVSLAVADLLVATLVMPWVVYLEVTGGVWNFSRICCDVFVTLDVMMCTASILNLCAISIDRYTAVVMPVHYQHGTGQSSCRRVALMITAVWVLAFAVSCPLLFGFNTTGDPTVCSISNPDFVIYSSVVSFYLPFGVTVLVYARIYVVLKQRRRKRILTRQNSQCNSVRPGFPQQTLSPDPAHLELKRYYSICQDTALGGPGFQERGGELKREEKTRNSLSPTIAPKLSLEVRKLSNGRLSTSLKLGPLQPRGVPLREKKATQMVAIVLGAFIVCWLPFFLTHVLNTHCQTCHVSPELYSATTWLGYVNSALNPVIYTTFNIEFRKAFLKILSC

[19] = biological target: Kappa-type opioid receptor (Homo sapiens) (UniProt P41145); assay: kappa(KOP) (h) Eurofins-Cerep Cellular and Nuclear Receptor Functional Assays; settings: Compound concentration 10.0 uM
Sequence of Kappa-type opioid receptor (Homo sapiens) (P41145 whole entry): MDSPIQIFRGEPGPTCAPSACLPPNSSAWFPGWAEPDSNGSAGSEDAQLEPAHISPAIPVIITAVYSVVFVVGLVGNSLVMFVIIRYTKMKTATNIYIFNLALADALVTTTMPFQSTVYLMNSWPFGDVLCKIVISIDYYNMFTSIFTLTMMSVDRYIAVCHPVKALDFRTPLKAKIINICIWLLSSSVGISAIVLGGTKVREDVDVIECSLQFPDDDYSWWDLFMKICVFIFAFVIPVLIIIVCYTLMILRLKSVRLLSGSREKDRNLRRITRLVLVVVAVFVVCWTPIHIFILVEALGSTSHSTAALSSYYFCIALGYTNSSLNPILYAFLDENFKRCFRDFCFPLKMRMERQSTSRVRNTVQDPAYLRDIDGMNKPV

SMILES: Cc1noc([C@H]2C[C@@H](c3ccc(C(F)(F)F)cc3)CN(C(=O)N3CCS(=O)(=O)C3)C2)n1 [BAY-448]
- IC50 (Platelet [1]): > 10000 nM (not active)
- inhibition [2]: 21.5%
- inhibition [3]: -0.58%

SMILES: O=C(N1CCS(=O)(=O)CC1)N1C[C@H](c2ccc(OC(F)(F)F)cc2)C[C@H](c2nc(C3CC3)no2)C1 [BAY-386]
- inhibition [4]: 0%
- inhibition [5]: 0%
- inhibition [6]: -2%
- inhibition [7]: 4%
- inhibition [8]: 3%
- inhibition [9]: 1%
- inhibition [10]: -2%
- inhibition [11]: 9.25%
- inhibition (Rattus norvegicus [12]): 11%
- IC50 (Platelet [13]): 430 nM
- inhibition [14]: -4%
- inhibition (Rattus norvegicus [15]): 14%
- IC50 (Platelet [16]): 140 nM
- inhibition at 60 min, 10 µM (hERG (KCNH2)): 22% (not active)
- inhibition [17]: -2%
- inhibition [18]: -1%
- % Inhibition of Control Agonist Response (Mean n=2) [19]: 4.5%
- % of Control Agonist Response (Mean n=2) [19]: 20.6%
